Key:
Type in all cases: in vivo
[1] = test system: lambsquarters (Chenopodium album, CHEAL); test: Post-emerge test, greenhouse herbicide activity screening; conditions: post-emerge; for Post-emerge Herbicidal Activity CHEAL (phytotoxicity rating): 14 days after application, rating scale 0-100; for Post-emerge Herbicidal Activity CHEAL: phytotoxicity rating 0-100 at 14 days after application
Method in brief: (§1)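 Each test used a mechanized track sprayer delivering 187 l/ha of acetone solution at 15–1000 g ai/ha. Post-emerge foliage at 2–3 leaves was treated with added 0.25% v/v non-ionic surfactant and bottom-watered only. Injury was assessed on day 14, where 100 means total kill.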

[2] = test system: barnyardgrass (Echinochloa crus-galli, ECHCG); test: as above; conditions: post-emerge; for Post-emerge Herbicidal Activity ECHCG (phytotoxicity rating): 14 days after application, rating scale 0-100; for Post-emerge Herbicidal Activity ECHCG: phytotoxicity rating 0-100 at 14 days after application
Method in brief: as §1

[3] = test system: johnsongrass (Sorghum halepense, SORHA); test: as above; conditions: post-emerge, 14 days after application, rating scale 0-100
Method in brief: as §1

[4] = test system: green foxtail (Setaria viridis, SETVI); test: as above; conditions: post-emerge; for Post-emerge Herbicidal Activity SETVI (phytotoxicity rating): 14 days after application, rating scale 0-100; for Post-emerge Herbicidal Activity SETVI: phytotoxicity rating 0-100 at 14 days after application
Method in brief: as §1

[5] = test system: velvetleaf (Abutilon theophrasti, ABUTH); test: as above; conditions: post-emerge; for Post-emerge Herbicidal Activity ABUTH (phytotoxicity rating): 14 days after application, rating scale 0-100; for Post-emerge Herbicidal Activity ABUTH: phytotoxicity rating 0-100 at 14 days after application
Method in brief: as §1

[6] = test system: sicklepod (Cassia obtusifolia, CASOB); test: as above; conditions: post-emerge; for Post-emerge Herbicidal Activity CASOB (phytotoxicity rating): 14 days after application, rating scale 0-100; for Post-emerge Herbicidal Activity CASOB: phytotoxicity rating 0-100 at 14 days after application
Method in brief: as §1

[7] = test system: redroot pigweed (Amaranthus retroflexus, AMARE); test: as above; conditions: post-emerge; for Post-emerge Herbicidal Activity AMARE (phytotoxicity rating): 14 days after application; for Post-emerge Herbicidal Activity AMARE: phytotoxicity rating 0-100 at 14 days after application
Method in brief: as §1

[8] = test system: large crabgrass (Digitaria sanguinalis, DIGSA); test: as above; conditions: post-emerge; for Post-emerge Herbicidal Activity DIGSA (phytotoxicity rating): 14 days after application, rating scale 0-100; for Post-emerge Herbicidal Activity DIGSA: phytotoxicity rating 0-100 at 14 days after application
Method in brief: as §1

[9] = test system: ivyleaf morningglory (Ipomoea hederacea, IPOHE); test: as above; conditions: post-emerge; for Post-emerge Herbicidal Activity IPOHE (phytotoxicity rating): 14 days after application, rating scale 0-100; for Post-emerge Herbicidal Activity IPOHE: phytotoxicity rating 0-100 at 14 days after application
Method in brief: as §1

[10] = test system: upland rice (Oryza sp., var. Tebonnet, RICE); test: Post-emerge test, crop safety; conditions: post-emerge; for Post-emerge Herbicidal Activity RICE (crop damage rating): 14 days after application, rating scale 0-100; for Post-emerge Herbicidal Activity RICE: crop damage rating 0-100 at 14 days after application
Method in brief: (§2)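 Compounds in acetone were track-sprayed at 15-1000 g ai/ha (187 l/ha) on sandy loam pots: pre-emerge one day after seeding, post-emerge at 2-3 leaf stage with 0.25% v/v non-ionic surfactant. Phytotoxicity was rated 14 days later on a 0 (no damage) to 100 (complete death) scale.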

[11] = test system: field corn (Zea mays L., var. Dekalb 535, CORN); test: Post-emerge test, crop safety; conditions: post-emerge; for Post-emerge Herbicidal Activity CORN (crop damage rating): 14 days after application, rating scale 0-100; for Post-emerge Herbicidal Activity CORN: crop damage rating 0-100 at 14 days after application
Method in brief: as §2

[12] = test system: redroot pigweed (Amaranthus retroflexus, AMARE); test: Pre-emerge test, greenhouse herbicide activity screening; conditions: pre-emerge, phytotoxicity rating 0-100 at 14 days after application
Method in brief: as §2

[13] = test system: lambsquarters (Chenopodium album, CHEAL); test: as above; conditions: pre-emerge, phytotoxicity rating 0-100 at 14 days after application
Method in brief: as §2

[14] = test system: barnyardgrass (Echinochloa crus-galli, ECHCG); test: as above; conditions: pre-emerge, phytotoxicity rating 0-100 at 14 days after application
Method in brief: as §2

[15] = test system: johnsongrass (Sorghum halepense, SORHA); test: as above; conditions: pre-emerge, phytotoxicity rating 0-100 at 14 days after application
Method in brief: as §2

[16] = test system: green foxtail (Setaria viridis, SETVI); test: as above; conditions: pre-emerge, phytotoxicity rating 0-100 at 14 days after application
Method in brief: as §2

[17] = test system: velvetleaf (Abutilon theophrasti, ABUTH); test: as above; conditions: pre-emerge, phytotoxicity rating 0-100 at 14 days after application
Method in brief: as §2

[18] = test system: sicklepod (Cassia obtusifolia, CASOB); test: as above; conditions: pre-emerge, phytotoxicity rating 0-100 at 14 days after application
Method in brief: as §2

[19] = test system: large crabgrass (Digitaria sanguinalis, DIGSA); test: as above; conditions: pre-emerge, phytotoxicity rating 0-100 at 14 days after application
Method in brief: as §2

[20] = test system: ivyleaf morningglory (Ipomoea hederacea, IPOHE); test: as above; conditions: pre-emerge, phytotoxicity rating 0-100 at 14 days after application
Method in brief: as §2

[21] = test system: upland rice (Oryza sp., var. Tebonnet, RICE); test: Pre-emerge test, crop safety; conditions: crop damage, pre-emerge, phytotoxicity rating 0-100 at 14 days after application
Method in brief: as §2

[22] = test system: field corn (Zea mays L., var. Dekalb 535, CORN); test: Pre-emerge test, crop safety; conditions: crop damage, pre-emerge, phytotoxicity rating 0-100 at 14 days after application
Method in brief: as §2

[23] = 63 g ai/ha, rating scale 0-100 (0 no damage, 100 complete death)
[24] = 250 g ai/ha, rating scale 0-100

Compound: Cn1c(C(F)(F)F)cc(=O)n(-c2c(O)cc(Cl)cc2Cl)c1=O [16-1]
- Post-emerge Herbicidal Activity CHEAL (phytotoxicity rating) ([1]; 63 g ai/ha): 0
- Post-emerge Herbicidal Activity CHEAL (phytotoxicity rating) ([1]; 250 g ai/ha): 70
- Post-emerge Herbicidal Activity ECHCG (phytotoxicity rating) ([2]; 63 g ai/ha): 0
- Post-emerge Herbicidal Activity ECHCG (phytotoxicity rating) ([2]; 250 g ai/ha): 0
- Post-emerge Herbicidal Activity SORHA (phytotoxicity rating) ([3]; 63 g ai/ha): 20
- Post-emerge Herbicidal Activity SORHA (phytotoxicity rating) ([3]; 250 g ai/ha): 40
- Post-emerge Herbicidal Activity SETVI (phytotoxicity rating) ([4]; 63 g ai/ha): 0
- Post-emerge Herbicidal Activity SETVI (phytotoxicity rating) ([4]; 250 g ai/ha): 0
- Post-emerge Herbicidal Activity ABUTH (phytotoxicity rating) ([5]; 63 g ai/ha): 70
- Post-emerge Herbicidal Activity ABUTH (phytotoxicity rating) ([5]; 250 g ai/ha): 100
- Post-emerge Herbicidal Activity CASOB (phytotoxicity rating) ([6]; 63 g ai/ha): 0
- Post-emerge Herbicidal Activity CASOB (phytotoxicity rating) ([6]; 250 g ai/ha): 0
- Post-emerge Herbicidal Activity AMARE (phytotoxicity rating) [7, 23]: 70
- Post-emerge Herbicidal Activity AMARE (phytotoxicity rating) [7, 24]: 70
- Post-emerge Herbicidal Activity DIGSA (phytotoxicity rating) ([8]; 63 g ai/ha): 20
- Post-emerge Herbicidal Activity DIGSA (phytotoxicity rating) ([8]; 250 g ai/ha): 80
- Post-emerge Herbicidal Activity IPOHE (phytotoxicity rating) ([9]; 63 g ai/ha): 30
- Post-emerge Herbicidal Activity IPOHE (phytotoxicity rating) ([9]; 250 g ai/ha): 70
- Post-emerge Herbicidal Activity RICE (crop damage rating) ([10]; 63 g ai/ha): 0
- Post-emerge Herbicidal Activity RICE (crop damage rating) ([10]; 250 g ai/ha): 10
- Post-emerge Herbicidal Activity CORN (crop damage rating) ([11]; 63 g ai/ha): 0
- Post-emerge Herbicidal Activity CORN (crop damage rating) ([11]; 250 g ai/ha): 0

Compound: Cn1c(C(F)(F)F)cc(=O)n(-c2c(Cl)cc(Cl)cc2OC(=O)c2ccc(F)cc2F)c1=O [16-4]
- Post-emerge Herbicidal Activity CHEAL (phytotoxicity rating) ([1]; 63 g ai/ha): 0
- Post-emerge Herbicidal Activity CHEAL (phytotoxicity rating) ([1]; 250 g ai/ha): 0
- Post-emerge Herbicidal Activity ECHCG (phytotoxicity rating) ([2]; 63 g ai/ha): 0
- Post-emerge Herbicidal Activity ECHCG (phytotoxicity rating) ([2]; 250 g ai/ha): 0
- Post-emerge Herbicidal Activity SORHA (phytotoxicity rating) ([3]; 63 g ai/ha): 0
- Post-emerge Herbicidal Activity SORHA (phytotoxicity rating) ([3]; 250 g ai/ha): 0
- Post-emerge Herbicidal Activity SETVI (phytotoxicity rating) ([4]; 63 g ai/ha): 0
- Post-emerge Herbicidal Activity SETVI (phytotoxicity rating) ([4]; 250 g ai/ha): 0
- Post-emerge Herbicidal Activity ABUTH (phytotoxicity rating) ([5]; 63 g ai/ha): 0
- Post-emerge Herbicidal Activity ABUTH (phytotoxicity rating) ([5]; 250 g ai/ha): 0
- Post-emerge Herbicidal Activity CASOB (phytotoxicity rating) ([6]; 63 g ai/ha): 0
- Post-emerge Herbicidal Activity CASOB (phytotoxicity rating) ([6]; 250 g ai/ha): 0
- Post-emerge Herbicidal Activity AMARE (phytotoxicity rating) [7, 23]: 0
- Post-emerge Herbicidal Activity AMARE (phytotoxicity rating) [7, 24]: 0
- Post-emerge Herbicidal Activity DIGSA (phytotoxicity rating) ([8]; 63 g ai/ha): 0
- Post-emerge Herbicidal Activity DIGSA (phytotoxicity rating) ([8]; 250 g ai/ha): 0
- Post-emerge Herbicidal Activity IPOHE (phytotoxicity rating) ([9]; 63 g ai/ha): 0
- Post-emerge Herbicidal Activity IPOHE (phytotoxicity rating) ([9]; 250 g ai/ha): 0
- Post-emerge Herbicidal Activity RICE (crop damage rating) ([10]; 63 g ai/ha): 0
- Post-emerge Herbicidal Activity RICE (crop damage rating) ([10]; 250 g ai/ha): 0
- Post-emerge Herbicidal Activity CORN (crop damage rating) ([11]; 63 g ai/ha): 0
- Post-emerge Herbicidal Activity CORN (crop damage rating) ([11]; 250 g ai/ha): 0

Compound: COc1c(Cl)cc(F)c(-n2nnn(CCCF)c2=O)c1NC(=O)COCc1ccccc1 [Compound 5-28]
- Pre-emerge Herbicidal Activity AMARE ([12]; rate 63 g ai/ha): 100
- Pre-emerge Herbicidal Activity AMARE ([12]; rate 250 g ai/ha): 100
- Post-emerge Herbicidal Activity CHEAL ([1]; 63 g ai/ha): 100
- Post-emerge Herbicidal Activity CHEAL ([1]; 250 g ai/ha): 100
- Post-emerge Herbicidal Activity ECHCG ([2]; 63 g ai/ha): 0
- Post-emerge Herbicidal Activity ECHCG ([2]; 250 g ai/ha): 50
- Post-emerge Herbicidal Activity SETVI ([4]; 63 g ai/ha): 10
- Post-emerge Herbicidal Activity SETVI ([4]; 250 g ai/ha): 30
- Post-emerge Herbicidal Activity ABUTH ([5]; 63 g ai/ha): 100
- Post-emerge Herbicidal Activity ABUTH ([5]; 250 g ai/ha): 100
- Post-emerge Herbicidal Activity CASOB ([6]; 63 g ai/ha): 90
- Post-emerge Herbicidal Activity CASOB ([6]; 250 g ai/ha): 100
- Post-emerge Herbicidal Activity AMARE ([7]; 63 g ai/ha): 100
- Post-emerge Herbicidal Activity AMARE ([7]; 250 g ai/ha): 100
- Post-emerge Herbicidal Activity DIGSA ([8]; 63 g ai/ha): 10
- Post-emerge Herbicidal Activity DIGSA ([8]; 250 g ai/ha): 30
- Post-emerge Herbicidal Activity IPOHE ([9]; 63 g ai/ha): 100
- Post-emerge Herbicidal Activity IPOHE ([9]; 250 g ai/ha): 100
- Post-emerge Herbicidal Activity RICE ([10]; 63 g ai/ha): 60
- Post-emerge Herbicidal Activity RICE ([10]; 250 g ai/ha): 70
- Post-emerge Herbicidal Activity CORN ([11]; 63 g ai/ha): 25
- Post-emerge Herbicidal Activity CORN ([11]; 250 g ai/ha): 70
- Pre-emerge Herbicidal Activity CHEAL ([13]; rate 63 g ai/ha): 100
- Pre-emerge Herbicidal Activity CHEAL ([13]; rate 250 g ai/ha): 100
- Pre-emerge Herbicidal Activity ECHCG ([14]; rate 63 g ai/ha): 30
- Pre-emerge Herbicidal Activity ECHCG ([14]; rate 250 g ai/ha): 60
- Pre-emerge Herbicidal Activity SORHA ([15]; rate 63 g ai/ha): 20
- Pre-emerge Herbicidal Activity SORHA ([15]; rate 250 g ai/ha): 30
- Pre-emerge Herbicidal Activity SETVI ([16]; rate 63 g ai/ha): 50
- Pre-emerge Herbicidal Activity SETVI ([16]; rate 250 g ai/ha): 85
- Pre-emerge Herbicidal Activity ABUTH ([17]; rate 63 g ai/ha): 100
- Pre-emerge Herbicidal Activity ABUTH ([17]; rate 250 g ai/ha): 100
- Pre-emerge Herbicidal Activity CASOB ([18]; rate 63 g ai/ha): 100
- Pre-emerge Herbicidal Activity CASOB ([18]; rate 250 g ai/ha): 100
- Pre-emerge Herbicidal Activity DIGSA ([19]; rate 63 g ai/ha): 30
- Pre-emerge Herbicidal Activity DIGSA ([19]; rate 250 g ai/ha): 90
- Pre-emerge Herbicidal Activity IPOHE ([20]; rate 63 g ai/ha): 60
- Pre-emerge Herbicidal Activity IPOHE ([20]; rate 250 g ai/ha): 100
- Pre-emerge Herbicidal Activity RICE ([21]; rate 63 g ai/ha): 30
- Pre-emerge Herbicidal Activity RICE ([21]; rate 250 g ai/ha): 60
- Pre-emerge Herbicidal Activity CORN ([22]; rate 63 g ai/ha): 10
- Pre-emerge Herbicidal Activity CORN ([22]; rate 250 g ai/ha): 20

From patent US6355799B1, “Substituted benzene compounds, process for their preparation, and herbicidal and defoliant compositions containing them” (ISK Americas Incorporated, priority 1997, dated 2002)
